Each molecule was assayed against Pin1 (Homo sapiens, UniProt Q13526) (assay: protease-coupled PPIase assay (pNA release at […] nm, […]°C)).
Type: biochemical

Sequence of Pin1 (Q13526 whole entry): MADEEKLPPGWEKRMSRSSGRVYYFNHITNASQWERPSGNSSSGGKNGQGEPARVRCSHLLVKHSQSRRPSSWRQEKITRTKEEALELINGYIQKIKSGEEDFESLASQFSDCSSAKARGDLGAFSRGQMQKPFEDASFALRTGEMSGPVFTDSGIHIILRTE

Compound | IC50 [µM]
CC(=O)N[C@H](/C=C1/CCCC[C@@H]1C(=O)NCCc1ccc2ccccc2c1)COP(=O)(O)O [(2R,5S)-1, Ac–L-pSer–Ψ[(Z)CH = C]-D-Pip–NEA] | 52 ± 4
CC(=O)N[C@@H](/C=C1/CCCC[C@H]1C(=O)NCCc1ccc2ccccc2c1)COP(=O)(O)O [(2S,5R)-1, Ac–D-pSer–Ψ[(Z)CH = C]–L-Pip–2-(2-naphthyl)ethylamine (NEA)] | 85 ± 10
CC(=O)N[C@@H](/C=C1/CCCC[C@@H]1C(=O)NCCc1ccc2ccccc2c1)COP(=O)(O)O [(2S,5S)-1, (2S,5S)-Ac–pSer–Ψ[(Z)CH = C]–pipecolyl(Pip)–2-(2-naphthyl)ethylamine 1] | 140 ± 20
